Source: article PMC11354674, “Genome Mining and Genetic Manipulation Reveal New Isofuranonaphthoquinones in Nocardia Species” (International Journal of Molecular Sciences, 2024)
Where two headings read alike, the source gives them in different places.

Assays:
[1] = in vitro; parameters: species or system A549, Huh7, HeLa, U87MG; MTT colorimetric cell growth / viability assay; details: human, hacat cells
Experimental: Lung cancer cells (A549), liver cancer cells (Huh7), cervical cancer cells (HeLa), brain cancer cells (U87MG), and a normal cell line (human keratinocyte cell line (HaCaT)) were acquired from the Korean Cell Line Bank (Seoul, Republic of Korea). Ten percent fetal bovine serum (FBS) was added to Dulbecco’s modified Eagle’s medium (DMEM) to culture the HeLa A549 cells. Similarly, Huh7 cells were grown in DMEM obtained from Corning Cellgro Manassas, VA, USA. Glioblastoma U87MG cells were cultured in a minimum essential medium (MEM) supplemented with 10% FBS. DMEM supplemented with 10% FBS, 100 µg/mL streptomycin, and 100 µg/mL benzylpenicillin was used to grow HaCaT cell lines. Each cell line was kept in an incubator with 5% CO2 that was humidified at 37 °C (Thermo Scientific, Vantaa, Finland). For the cell growth assays, various cancer cells at 2 × 10^3 cells/well were plated in 96-well culture plates. NOC-IBR1 and NOC-IBR2 were added to each well at various concentrations (200 μM, 100 μM, 50 μM, 25 μM, 12.5 μM, 6.25 μM, 3.16 μM, 1.56 μM, and 0.78 μM), and the cells were incubated for 72 h. […] Figure 4 The cytotoxicity of NOC-IBR1 and NOC-IBR2 was assessed across different cell lines. […] Cell growth was measured using the MTT colorimetric assay. […] Similarly, the IC50 values of doxorubicin in the above cell lines were also calculated (Table S4). […]

[2] = system: T1, ThnM3; test: O-methylation assay, HPLC, nonlinear Michaelis-Menten fit; format: biochemical, Nocardia sp. CS682; details: 50 mM Tris, pH 8 in methods but pH 7.5 in Figure 5 legend, 5 µg ThnM3
T1 construct: methyltransferase of the tetrahydroxynaphthalene (THN) gene cluster

[3] = system: A549; test: cells; parameters: species or system Huh7, HeLa, U87MG, HaCaT; MTT colorimetric cell growth / viability assay; details: Homo sapiens, A549, 72 h; read-out: NOC-IBR1 IC50
Experimental: (§1) Lung cancer cells (A549), liver cancer cells (Huh7), cervical cancer cells (HeLa), brain cancer cells (U87MG), and a normal cell line (human keratinocyte cell line (HaCaT)) were acquired from the Korean Cell Line Bank (Seoul, Republic of Korea). Ten percent fetal bovine serum (FBS) was added to Dulbecco’s modified Eagle’s medium (DMEM) to culture the HeLa A549 cells. Similarly, Huh7 cells were grown in DMEM obtained from Corning Cellgro Manassas, VA, USA. Glioblastoma U87MG cells were cultured in a minimum essential medium (MEM) supplemented with 10% FBS. DMEM supplemented with 10% FBS, 100 µg/mL streptomycin, and 100 µg/mL benzylpenicillin was used to grow HaCaT cell lines. Each cell line was kept in an incubator with 5% CO2 that was humidified at 37 °C (Thermo Scientific, Vantaa, Finland). For the cell growth assays, various cancer cells at 2 × 10^3 cells/well were plated in 96-well culture plates. NOC-IBR1 and NOC-IBR2 were added to each well at various concentrations (200 μM, 100 μM, 50 μM, 25 μM, 12.5 μM, 6.25 μM, 3.16 μM, 1.56 μM, and 0.78 μM), and the cells were incubated for 72 h. A 3-(4,5-dimethylthiazol-2-yl)-2,5-diphenyltetrazolium bromide (MTT) colorimetric assay was used to measure cell growth (cell viability).  Figure 4 The cytotoxicity of NOC-IBR1 and NOC-IBR2 was assessed across different cell lines. Each cell line was maintained in a 5% CO2 humidified incubator at 37 °C. The cells were seeded at a density of 2 × 10^3 cells/well in 96-well culture plates for the cell growth assay. Various concentrations of the compounds (200 μM, 100 μM, 50 μM, 25 μM, 12.5 μM, 6.25 μM, 3.16 μM, 1.56 μM, and 0.78 μM) were added to each well, and the cells were incubated for 72 h. Cell growth was measured using the MTT colorimetric assay. NOC-IBR1 and NOC-IBR2 were further subjected to cytotoxicity assays against four different cancer cell lines using a colorimetric test of 3-(4,5-dimethylthiazol-2-yl)-2,5-diphenyltetrazolium bromide (MTT) (Figure 4). […] Similarly, the IC50 values of doxorubicin in the above cell lines were also calculated (Table S4). […] These findings further indicate that NOC-IBR1 and NOC-IBR2 substantially reduce the viability of A549, Huh7, HeLa, and U87MG cells in a dose-dependent manner. This is the first report on the cytotoxicity of these two compounds against cancer cell lines.

[4] = system: HeLa; test: cells; parameters: species or system A549, Huh7, U87MG, HaCaT; MTT colorimetric cell growth / viability assay; details: Homo sapiens, HeLa, 72 h; read-out: NOC-IBR1 IC50
Experimental: as §1

[5] = system: Huh7; test: cells; parameters: species or system A549, HeLa, U87MG, HaCaT; MTT colorimetric cell growth / viability assay; details: Homo sapiens, Huh-7, 72 h; read-out: NOC-IBR1 IC50
Experimental: as §1

[6] = system: U87MG; test: cells; parameters: species or system A549, Huh7, HeLa, HaCaT; MTT colorimetric cell growth / viability assay; details: Homo sapiens, U-87 MG, 72 h; read-out: NOC-IBR1 IC50
Experimental: as §1

In the case of `COc1cccc2c1C(=O)c1c(O)c3c(c(O)c1C2=O)C[C@@](O)(C(=O)CO)C[C@@H]3O[C@H]1C[C@H](N)[C@H](O)[C@H](C)O1` [Doxorubicin], the CC50 at 72 h ([1]; read-out: Doxorubicin IC50 (μM), normal cells) is reported as 0.681 µM.
In the case of `COc1cc2c(c(O)c1O)C(=O)c1c(coc1C)C2` [NOC-IBR1, 6-methoxy-7,8-dihydroxy-1-methylnaphtho [2,3-c] furan-9-one], the Km ([2]; 2 mM SAM (saturating), read-out: apparent Km) is reported as 15.6 ± 1.75 µM, the IC50 [3] is reported as 200 µM and the IC50 [4] is reported as 61.1 µM. The IC50 [5] was 44.4 µM, the IC50 [6] was 120 µM and the CC50 at 72 h ([1]; read-out: NOC-IBR1 IC50 (μM), normal cells) was over 200 µM.
`C[S+](CC[C@H](N)C(=O)O)C[C@H]1O[C@@H](n2cnc3c(N)ncnc32)[C@H](O)[C@@H]1O` (some centres unmarked) [SAM] showed a Km ([2]; methyl donor, 100 µM NOC-IBR1 (near-saturating), read-out: Km) of 39.7 ± 6.08 µM.
